Results from publication PMC8014892, “Permeation Studies across Symmetric and Asymmetric Membranes in Microdroplet Arrays” (Analytical Chemistry, 2021).
Entries after “also recorded” stand apart in the source; their conditions may differ. Like-named read-outs stand apart in the source and are kept apart here. One block for each compound: values may come before it.

What was measured:
[1] = Permeation across symmetric 100% DOPC DIBs in droplet pairs, fluorescence microscopy; format: in vitro ADME; settings: for Permeation across the DIB (observation in words): pH 6.0, 100% DOPC DIBs, calcein observed for 2900 minutes; for Permeation across the DIB (observation in words) / Papp at 50 µM: 37 °C; for Papp at 50 µM: not told, droplet pairs, N = 27; for Papp at 50 µM / kad / kda: acceptor 100% DOPC
Protocol: The lipid-out approach was used to add phospholipids to the water/oil interface, i.e., lipids were dissolved in the oil phase. We purchased 1,2-dioleoyl-sn-glycero-3-phosphocholine (DOPC) and 1,2-dioleoyl-sn-glycero-3-phospho-L-serine (DOPS) as solutions in chloroform from Avanti Polar Lipids (Alabaster, AL, U.S.A.). We placed the required lipids in pear-shaped flasks and removed the chloroform with a rotary evaporator (Büchi Labortechnik AG, Flawil, Switzerland) forming a film. The lipid film was dissolved in a 1:1 (v/v) mix of hexadecane (reagent plus grade, Sigma–Aldrich) and squalane (Sigma–Aldrich) in an ultrasonication bath at 50 °C for ∼30 min. The final phospholipid concentration in oil was 0.625 mM for donor droplets and 1.25 mM for acceptor droplets.
We used either 100% DOPC or 30% DOPC and 70% DOPS mixtures (mole percentage). We filtrated the phospholipid-oil solution before use (0.45 μm pore size, RC 4 Male Luer Slip Minisart filters, Huberlab, Switzerland).
All aqueous solutions were prepared in LC–MS grade water (Fisher Scientific, Loughborough, U.K.). We used as buffers 20 mM 2-morpholinoethanesulfonic acid (MES, pH 6.0, Alfa Aesar), 20 mM phosphate buffer (pH 7.0, Acros Organics), 50 mM 4-(2-hydroxyethyl)-1-piperazineethanesulfonic acid (HEPES, pH 7.4, gibco, Paisley, U.K.), or 20 mM tris(hydroxymethyl)aminomethane (Tris, pH 8.0, VWR). […] PEG4-NBD was synthesized from succinimidyl 6-(N-(7-nitrobenz-2-oxa-1,3-diazol-4-yl)amino)hexanoate (NBD NHS-ester, Molecular Probes Life Technologies, Eugene, OR, U.S.A.) and amine-terminated poly(ethylene glycol)-4 alcohol (Amino-PEG4-OH, Quanta Biodesign, Plain City, OH, U.S.A.).[26] A 1:1 molar ratio of the NBD NHS-ester and Amino-PEG4-OH was reacted in a 10:1 (v/v) solution of chloroform (Sigma–Aldrich) and triethylamine (Brenntag Schweizerhall, Basel, Switzerland). The reaction was held at 45 °C for 2 h, followed by 22 °C for 12 h. Afterward, the reaction products were separated with a preparative liquid chromatography system (Prep 150 LC system, Waters). The mass of the product PEG4-NBD was confirmed with an LC–MS system (Ultimate 3000 MSQ, Dionex).
We placed the microarray plate in a removable temperature-controlled holder (T = 37 °C) with a transparent bottom, which was mounted on a motorized XY stage (HLD117, Prior) of an inverted fluorescence microscope (Olympus IX73). We carried out the experiments in an oil bath to reduce droplet evaporation. The plate holder was filled with ∼4 mL of 1:1 (v/v) hexadecane:squalane without phospholipids and 50 μL of water in all four edges to reduce droplet shrinkage. We used a self-made microfluidic T-junction device made of polycarbonate (PC) to generate droplets of ∼25 nL by continuously injecting the aqueous phase (flow rate: 0.5 μL/min) into the immiscible oil phase (flow rate: 2 μL/min). The droplets were transported through a capillary onto the microarray plate. In this time, the phospholipids in the oil aligned along the water/oil interface and formed a monolayer.[27],[28] We mounted the end of the capillary on a motorized Z stage (M-403.2PD, Physik Instrumente, Karlsruhe, Germany). The generated droplets were detected in the capillary holder with a custom-made optical droplet detection system.[22] This was utilized to selectively deposit a single droplet per predefined position by synchronizing droplet generation and capillary and microarray movements. All components of the microscope and the capillary were controlled by the software YouScope for automated microscopy (R2018, v2.1.0).[29]
Fluorescence and bright-field pictures were recorded using a light source (Lumen 300, Prior and TH4-200, Olympus) and a complementary metal oxide semiconductor (CMOS) camera (Zyla 4.2, Andor) connected to the Olympus IX73 microscope. To track fluorescein, calcein, and PEG4-NBD, a blue excitation filter set (exciter HQ470/40x, dichroic 500dcxr BS, and emitter E515lpv2; Chroma Technology Corp, Bellows Falls, VT, U.S.A.) was used. […]

[2] = set-up: method as in PMID 19560324; settings: calcein permeation across liposome membranes; cited from earlier work
[3] = Permeation over multiple compartments (one donor, four acceptor droplets in series); format: in vitro ADME; settings: for Papp at 50 µM: not told
Protocol: For several acceptor droplets in series, the numerical solutions of a differential equation system according to eqs 5 to 7 were fitted to the normalized fluorescence data of donor and acceptor droplets. The solutions of the differential equation system and the fitting were performed with the Matlab (version 2018a, Mathworks) functions ode15s, fmincon (minimizing the sum of squared residues), and MultiStart. [drawing 5] 5 [drawing 6] 6 [drawing 7] 7
W(n) is the fluorescence in the water phase of droplet n, k is the mass transfer rate constant (the fit parameter), and N is the total number of donor and acceptor droplets. The expression N > 2 equals 1 if N > 2 and 0 if N ≤ 2, and n < N equals 1 if n < N and 0 if n ≥ N.
Our platform allows for spotting droplet lines, instead of just pairs. With this, we can monitor how permeation and diffusion of compounds progress over several compartments. For creation of multiple droplets, connected via DIBs, we used a modified glass plate, where cavities were created in lines. Several fluorophore-free acceptor droplets were deposited in this line accordingly. The last droplet contained fluorescein, which permeates over the multiple compartments. […] Permeation at pH 7.4 was slower, which was expected from the experiments with the droplet pairs and from the ionization state of fluorescein (Supporting Information, Figure S11). The Papp,fit at pH 7.4 was (19.01 ± 1.16) × 10^–6 cm/s, higher than determined with the droplet pairs at pH 7.0 (7.05 ± 0.42) × 10^–6 cm/s. […] The lag phase observed at pH 7.0 (Supporting Information Figure S5) has a higher impact on the fit parameters in the assay with only two droplets (reducing the apparent rate constants) than with several droplets in series.

[4] = cited from earlier work
[5] = Label-free permeation analysis of droplet pairs by LC-MS; format: in vitro ADME; settings: not told, pH 6, pH 6.0, LC-MS, N = 4
Protocol: For subsequent LC–MS analysis, we used a recently developed protocol to split the droplet pairs.[24] The capillary used before for spotting of droplets was flushed with hexadecane/squalane (1:1) and placed between two connecting droplets to separate the droplet pairs. To extract individual droplets, the capillary was flushed with fluorinated oil (HFE-7500, 3 M Novec, Hadfield, U.K.) and connected to a 50 μL glass syringe (Hamilton, Switzerland). The center of the capillary was lowered to a height where it slightly squeezed the droplet. Subsequently, by slowly pulling the glass syringe, the droplet was aspirated. Afterward, the capillary was moved over a small tube (TreffLab Degersheim, Switzerland), and the aspirated droplet was ejected. […]
The sample was analyzed in a 1260 II Infinity LC Quaternary system coupled to a single quadrupole atmospheric pressure ionization-electrospray (API-ES) G6130B mass spectrometer (Agilent). […] All analytes were detected with selected ion monitoring (SIM) in a positive mode. […]
Equations 1 and 2 were fitted to the data with OriginPro. […] Data from every droplet pair were individually fitted and evaluated. […] We further approximated that the area of the droplet interface bilayer is circular,[32] and we calculated the area (A) for the individual droplet pairs via the measured droplet interface bilayer diameter from the bright-field images (as indicated in Table S1). […]

[6] = Permeation across symmetric and asymmetric DIBs containing 30% DOPC 70% DOPS, droplet pairs, fluorescence microscopy; format: in vitro ADME; settings: not told
Protocol: We placed the microarray plate in a removable temperature-controlled holder (T = 37 °C) with a transparent bottom, which was mounted on a motorized XY stage (HLD117, Prior) of an inverted fluorescence microscope (Olympus IX73). We carried out the experiments in an oil bath to reduce droplet evaporation. […] The generated droplets were detected in the capillary holder with a custom-made optical droplet detection system.[22] […]
Fluorescence and bright-field pictures were recorded using a light source (Lumen 300, Prior and TH4-200, Olympus) and a complementary metal oxide semiconductor (CMOS) camera (Zyla 4.2, Andor) connected to the Olympus IX73 microscope. […]
The recorded fluorescence signals were evaluated using Fiji[30] and OriginPro (2019, 9.6, OriginLab Corporation). First, we subtracted the background fluorescence for data evaluation. In a next step, we normalized the fluorescence to compensate for potential leakage into the oil phase, membrane partitioning, shrinkage of droplets, or fluorescence bleaching. For the normalization, the sum of fluorescence of all droplets in the first image was set to 100%. […]

Permeation across the DIB (observation in words) [1]: no permeation was observed
SMILES: O=C(O)CN(CC(=O)O)Cc1cc2c(cc1O)Oc1cc(O)c(CN(CC(=O)O)CC(=O)O)cc1C21OC(=O)c2ccccc21 [calcein]
Permeation across the DIB (observation in words) ([1]; listed as Calcein): did not permeate; also recorded: No permeation observed
permeability coefficients [2]: 10^–10 to 10^–11 cm/s

Papp at 50 µM ([3]; pH 6, one donor to four acceptor droplets, 100% DOPC, eqs 5–7 and 3, N = 12 droplet networks): 200 ± 9.73 ×10⁻⁶ cm/s
Papp at 50 µM ([3]; pH 7.4, one donor to four acceptor droplets, eqs 5–7 and 3): 19 ± 1.16 ×10⁻⁶ cm/s
Papp at 50 µM ([1]; pH 6, donor 100% DOPC): 193 ± 17.8 ×10⁻⁶ cm/s
Papp at 50 µM ([1]; pH 7, donor 100% DOPC): 7.05 ± 0.42 ×10⁻⁶ cm/s
Papp at 50 µM ([1]; pH 8, donor 100% DOPC): 1.05 ± 0.06 ×10⁻⁶ cm/s
Permeation across the DIB (observation in words) [1]: permeated across the DIB
SMILES: O=C1OC2(c3ccc(O)cc3Oc3cc(O)ccc32)c2ccccc21 [fluorescein]
Time until equilibrium was reached in all five droplets ([3]; pH 6, five droplets in series): approximately 30 min
kad ([1]; pH 6, donor 100% DOPC): 4046.0 × 10-6 (1/s)
kda ([1]; pH 6, donor 100% DOPC): 4046.0 × 10-6 (1/s)
kad ([1]; pH 7, donor 100% DOPC): 145.0 × 10-6 (1/s)
kda ([1]; pH 7, donor 100% DOPC): 145.0 × 10-6 (1/s)
kad ([1]; pH 8, donor 100% DOPC): 20.3 × 10-6 (1/s)
kda ([1]; pH 8, donor 100% DOPC): 20.3 × 10-6 (1/s)
permeation constant ([4]; pH 6.4, Nisisako et al.): 60.0 ± 22.4 × 10^–6 cm/s
permeation constant ([4]; pH 7.4, Schlicht and Zagnoni): 2.01 ± 1.46 × 10^–6 cm/s
permeation constant ([4]; pH 7.5, Nisisako et al.): 5.1 ± 1.8 × 10^–6 cm/s

SMILES: CC/N=c1\cc2oc3cc(NCC)c(C)cc3c(-c3ccccc3C(=O)OCC)c-2cc1C [rhodamine 6G]
Papp at 50 µM ([1]; pH 6, donor 100% DOPC): 10.4 ×10⁻⁶ cm/s
kad ([1]; pH 6, donor 100% DOPC): 166.8 × 10-6 (1/s)
kda ([1]; pH 6, donor 100% DOPC): 166.8 × 10-6 (1/s)
Papp at 50 µM ([5]; eq 3, fit of all data, read-out: Papp.fit (MS)): 6.28 ± 0.68 ×10⁻⁶ cm/s
Papp at 50 µM ([5]; eq 4, sink condition, first two data points, read-out: Papp.sink (MS)): 9.42 ± 2.17 ×10⁻⁶ cm/s
Papp at 50 µM ([6]; pH 6, pH 6, donor 30% DOPC 70% DOPS, acceptor 30% DOPC 70% DOPS (symmetric)): 12.1 ×10⁻⁶ cm/s
Papp at 50 µM ([6]; pH 6, pH 6, donor 30% DOPC 70% DOPS, acceptor 100% DOPC (asymmetric)): 19.6 ×10⁻⁶ cm/s
Papp at 50 µM ([6]; pH 6, pH 6, donor 100% DOPC, acceptor 30% DOPC 70% DOPS (asymmetric)): 6.56 ×10⁻⁶ cm/s
